Results taken from US9351987B2, “Compositions for treating heartworm infestation” (CEVA SANTE ANIMALE, priority 2010, dated 2016).
Read-outs that look alike come from different tables or passages of the source.

Legend:
[1] = 14-week oral study, cited from earlier work
[2] = 36-day study, beagle dogs, cited from earlier work
Dirofilaria larvae [3] = settings: cited from earlier work
[4] = Plasma ivermectin concentration after ivermectin implant in dogs; assay type: in vivo, dog
Description: The concentrations of ivermectin (ng/mL) in the plasma, collected in the jugular vein at day 0 to day 429, are presented in Table 2.
The concentrations of ivermectin in the plasma, collected in the jugular vein, have been evaluated during 429 days for dogs A and […] (Table 2, Example 1) or just dosed until D365 for dogs C and D.

Dirofilaria larvae [5] = experiment: Effective ivermectin rate against Dirofilaria larvae; assay type: in vivo; settings: established by the present inventors
Procedure: Currently approved dosages of ivermectin are about 6 mcg/kg orally or 200 mcg/kg subcutaneously. […] Cunningham C P et al., (Am. J. Vet, Res., 2006, 67) brought evidence that this effective rate might be around 0.2 ng/mL of ivermectin in the plasma.
Also, the formulations according to the present invention provide a long term protection, e.g., at least 6 months, 12 months, or 18 months up to 24 months against infections caused by parasites.

[6] = estimated from reports from non recommended use of the drug; cited from earlier work

## CC[C@H](C)[C@H]1O[C@]2(CC[C@@H]1C)C[C@@H]1C[C@@H](C/C=C(\C)[C@@H](O[C@H]3C[C@H](OC)[C@@H](O[C@H]4C[C@H](OC)[C@@H](O)[C@H](C)O4)[C@H](C)O3)[C@@H](C)/C=C/C=C3\CO[C@@H]4[C@H](O)C(C)=C[C@@H](C(=O)O1)[C@]34O)O2 [Ivermectin]
[1]; beagle dogs (4/sex/group)
  No Observable Effect Levels (NOEL): 0.5 mg/kg bw
[1]; beagle dogs, 2.0 mg/kg bw group
  Signs developed (four dogs, killed prior to the end of the study): tremors, ataxia, anorexia and dehydration
[1]; beagle dogs, 1.0 and 2.0 mg/kg bw
  Signs observed: mydriasis and slight weight loss
[2]; oral 0.5 and 2.0 mg/kg bw
  Time to steady-state of H2B1a in plasma: after about three weeks
[2]; oral 0.5 vs 2.0 mg/kg bw
  Average increase in plasma levels on a four-fold increase in the dose: eight-fold
Dirofilaria larvae [3]; Cunningham C P et al., Am. J. Vet. Res., 2006, 67
  Effective rate of ivermectin in the plasma: around 0.2 ng/mL
Dirofilaria larvae [3]; ivermectin administered per se at 6 mcg/kg, generally reported
  Effect on Dirofilaria larvae: able to kill efficiency one month aged Dirofilaria larvae
[4]; dog A (6% ivermectin implant), day 1
  Ivermectin concentration in plasma: 6.25 ng/mL
[4]; dog A (6% ivermectin implant), day 2
  Ivermectin concentration in plasma: 5.29 ng/mL
[4]; dog A (6% ivermectin implant), day 4
  Ivermectin concentration in plasma: 5.25 ng/mL
[4]; dog A (6% ivermectin implant), day 10
  Ivermectin concentration in plasma: 2.56 ng/mL
[4]; dog A (6% ivermectin implant), day 21
  Ivermectin concentration in plasma: 1.35 ng/mL
[4]; dog A (6% ivermectin implant), day 30
  Ivermectin concentration in plasma: 0.91 ng/mL
[4]; dog A (6% ivermectin implant), day 39
  Ivermectin concentration in plasma: 1.09 ng/mL
[4]; dog A (6% ivermectin implant), day 60
  Ivermectin concentration in plasma: 0.76 ng/mL
[4]; dog A (6% ivermectin implant), day 78
  Ivermectin concentration in plasma: 0.67 ng/mL
[4]; dog A (6% ivermectin implant), day 99
  Ivermectin concentration in plasma: 0.26 ng/mL
[4]; dog A (6% ivermectin implant), day 120
  Ivermectin concentration in plasma: 0.44 ng/mL
[4]; dog A (6% ivermectin implant), day 141
  Ivermectin concentration in plasma: 0.28 ng/mL
[4]; dog A (6% ivermectin implant), day 162
  Ivermectin concentration in plasma: 0.18 ng/mL
[4]; dog A (6% ivermectin implant), day 183
  Ivermectin concentration in plasma: 0.13 ng/mL
[4]; dog A (6% ivermectin implant), day 211
  Ivermectin concentration in plasma: 0.14 ng/mL
[4]; dog A (6% ivermectin implant), day 239
  Ivermectin concentration in plasma: 0.10 ng/mL
[4]; dog A (6% ivermectin implant), day 266
  Ivermectin concentration in plasma: 0.12 ng/mL
[4]; dog A (6% ivermectin implant), day 295
  Ivermectin concentration in plasma: 0.07 ng/mL
[4]; dog A (6% ivermectin implant), day 329
  Ivermectin concentration in plasma: 0.06 ng/mL
[4]; dog A (6% ivermectin implant), day 365
  Ivermectin concentration in plasma: 0.14 ng/mL
[4]; dog A (6% ivermectin implant), day 380
  Ivermectin concentration in plasma: 0.14 ng/mL
[4]; dog A (6% ivermectin implant), day 395
  Ivermectin concentration in plasma: 0.17 ng/mL
[4]; dog A (6% ivermectin implant), day 429
  Ivermectin concentration in plasma: 0.20 ng/mL
[4]; dog B (6% ivermectin implant), day 1
  Ivermectin concentration in plasma: 3.50 ng/mL
[4]; dog B (6% ivermectin implant), day 2
  Ivermectin concentration in plasma: 3.04 ng/mL
[4]; dog B (6% ivermectin implant), day 4
  Ivermectin concentration in plasma: 2.62 ng/mL
[4]; dog B (6% ivermectin implant), day 10
  Ivermectin concentration in plasma: 0.97 ng/mL
[4]; dog B (6% ivermectin implant), day 21
  Ivermectin concentration in plasma: 1.92 ng/mL
[4]; dog B (6% ivermectin implant), day 30
  Ivermectin concentration in plasma: 1.01 ng/mL
[4]; dog B (6% ivermectin implant), day 39
  Ivermectin concentration in plasma: 1.02 ng/mL
[4]; dog B (6% ivermectin implant), day 60
  Ivermectin concentration in plasma: 0.51 ng/mL
[4]; dog B (6% ivermectin implant), day 78
  Ivermectin concentration in plasma: 0.29 ng/mL
[4]; dog B (6% ivermectin implant), day 99
  Ivermectin concentration in plasma: 0.11 ng/mL
[4]; dog B (6% ivermectin implant), day 120
  Ivermectin concentration in plasma: 0.30 ng/mL
[4]; dog B (6% ivermectin implant), day 141
  Ivermectin concentration in plasma: 0.23 ng/mL
[4]; dog B (6% ivermectin implant), day 162
  Ivermectin concentration in plasma: 0.10 ng/mL
[4]; dog B (6% ivermectin implant), day 183
  Ivermectin concentration in plasma: 0.11 ng/mL
[4]; dog B (6% ivermectin implant), day 211
  Ivermectin concentration in plasma: 0.24 ng/mL
[4]; dog B (6% ivermectin implant), day 239
  Ivermectin concentration in plasma: 0.05 ng/mL
[4]; dog B (6% ivermectin implant), day 266
  Ivermectin concentration in plasma: 0.10 ng/mL
[4]; dog B (6% ivermectin implant), day 295
  Ivermectin concentration in plasma: 0.06 ng/mL
[4]; dog B (6% ivermectin implant), day 365
  Ivermectin concentration in plasma: 0.06 ng/mL
[4]; dog B (6% ivermectin implant), day 380
  Ivermectin concentration in plasma: 0.06 ng/mL
[4]; dog B (6% ivermectin implant), day 395
  Ivermectin concentration in plasma: 0.08 ng/mL
[4]; dog B (6% ivermectin implant), day 429
  Ivermectin concentration in plasma: 0.06 ng/mL
[4]; dog C (4.5% ivermectin implant), day 1
  Ivermectin concentration in plasma: 6.93 ng/mL
[4]; dog C (4.5% ivermectin implant), day 2
  Ivermectin concentration in plasma: 6.42 ng/mL
[4]; dog C (4.5% ivermectin implant), day 4
  Ivermectin concentration in plasma: 4.77 ng/mL
[4]; dog C (4.5% ivermectin implant), day 10
  Ivermectin concentration in plasma: 2.64 ng/mL
[4]; dog C (4.5% ivermectin implant), day 21
  Ivermectin concentration in plasma: 2.14 ng/mL
[4]; dog C (4.5% ivermectin implant), day 30
  Ivermectin concentration in plasma: 1.79 ng/mL
[4]; dog C (4.5% ivermectin implant), day 39
  Ivermectin concentration in plasma: 1.74 ng/mL
[4]; dog C (4.5% ivermectin implant), day 60
  Ivermectin concentration in plasma: 0.28 ng/mL
[4]; dog C (4.5% ivermectin implant), day 78
  Ivermectin concentration in plasma: 0.17 ng/mL
[4]; dog C (4.5% ivermectin implant), day 99
  Ivermectin concentration in plasma: 0.21 ng/mL
[4]; dog C (4.5% ivermectin implant), day 120
  Ivermectin concentration in plasma: 0.27 ng/mL
[4]; dog C (4.5% ivermectin implant), day 141
  Ivermectin concentration in plasma: 0.26 ng/mL
[4]; dog C (4.5% ivermectin implant), day 162
  Ivermectin concentration in plasma: 0.17 ng/mL
[4]; dog C (4.5% ivermectin implant), day 183
  Ivermectin concentration in plasma: 0.17 ng/mL
[4]; dog C (4.5% ivermectin implant), day 211
  Ivermectin concentration in plasma: 0.15 ng/mL
[4]; dog C (4.5% ivermectin implant), day 239
  Ivermectin concentration in plasma: 0.11 ng/mL
[4]; dog C (4.5% ivermectin implant), day 266
  Ivermectin concentration in plasma: 0.13 ng/mL
[4]; dog C (4.5% ivermectin implant), day 295
  Ivermectin concentration in plasma: 0.13 ng/mL
[4]; dog C (4.5% ivermectin implant), day 329
  Ivermectin concentration in plasma: 0.06 ng/mL
[4]; dog C (4.5% ivermectin implant), day 365
  Ivermectin concentration in plasma: 0.16 ng/mL
[4]; dog D (3% ivermectin implant), day 1
  Ivermectin concentration in plasma: 7.63 ng/mL
[4]; dog D (3% ivermectin implant), day 2
  Ivermectin concentration in plasma: 6.95 ng/mL
[4]; dog D (3% ivermectin implant), day 4
  Ivermectin concentration in plasma: 4.35 ng/mL
[4]; dog D (3% ivermectin implant), day 10
  Ivermectin concentration in plasma: 3.82 ng/mL
[4]; dog D (3% ivermectin implant), day 21
  Ivermectin concentration in plasma: 1.23 ng/mL
[4]; dog D (3% ivermectin implant), day 30
  Ivermectin concentration in plasma: 1.54 ng/mL
[4]; dog D (3% ivermectin implant), day 39
  Ivermectin concentration in plasma: 1.15 ng/mL
[4]; dog D (3% ivermectin implant), day 60
  Ivermectin concentration in plasma: 0.84 ng/mL
[4]; dog D (3% ivermectin implant), day 78
  Ivermectin concentration in plasma: 0.52 ng/mL
[4]; dog D (3% ivermectin implant), day 99
  Ivermectin concentration in plasma: 0.69 ng/mL
[4]; dog D (3% ivermectin implant), day 120
  Ivermectin concentration in plasma: 0.87 ng/mL
[4]; dog D (3% ivermectin implant), day 141
  Ivermectin concentration in plasma: 0.65 ng/mL
[4]; dog D (3% ivermectin implant), day 162
  Ivermectin concentration in plasma: 0.45 ng/mL
[4]; dog D (3% ivermectin implant), day 183
  Ivermectin concentration in plasma: 0.51 ng/mL
[4]; dog D (3% ivermectin implant), day 211
  Ivermectin concentration in plasma: 0.29 ng/mL
[4]; dog D (3% ivermectin implant), day 239
  Ivermectin concentration in plasma: 0.18 ng/mL
[4]; dog D (3% ivermectin implant), day 266
  Ivermectin concentration in plasma: 0.22 ng/mL
[4]; dog D (3% ivermectin implant), day 295
  Ivermectin concentration in plasma: 0.13 ng/mL
[4]; dog D (3% ivermectin implant), day 329
  Ivermectin concentration in plasma: 0.13 ng/mL
[4]; dog D (3% ivermectin implant), day 365
  Ivermectin concentration in plasma: 0.09 ng/mL
Dirofilaria larvae [5]
  Effective rate of ivermectin in the plasma: around 0.1 ng/mL
[6]
  Share of collie dogs highly sensitive to ivermectin: Approximately 30%
